According to patent publication US9738878B2, “HIV-1 integrase derived peptides and compositions” (priority 2008, dated 2017):
No end group written: not given here.

Columns and labels:
[1] = test system: Rev-GFP; assay: ELISA-based binding assay, Rev-GFP on peptide-coated plates; design: species or system HIV-1; settings: screen of IN peptide library
Protocol: (§1) Protein-peptide binding was estimated using an ELISA-based binding assay as described previously (Rosenbluh et al., 2006, Anal Biochem 352, 157-168). Briefly, Maxisorp plates (Nunc) were incubated at room temperature for 2 h with 200 μl of 10 μg/ml synthetic peptide in carbonate buffer. After incubation, the solution was removed, the plates were washed three times with PBS, and 200 μl of 10% BSA in PBS (w/v) was added for 2 h at room temperature. […] Following three washes with PBS, the concentration of bound biotinylated molecules was estimated after the addition of streptavidin-horseradish peroxidase (HRP) conjugate (Sigma), as described previously (Melchior et al., 1993, J Cell Biol 123, 1649-1659). The concentration of bound protein molecules was estimated after the addition of anti-GFP mouse antibody (Santa Cruz) which then was interacted with rabbit anti-mouse IgG antibody conjugated to HRP. The enzymatic activity of HRP was estimated by monitoring the product's optical density (OD) at 490 nm using an ELISA plate reader (Tecan Sunrise). Each measurement was performed at least in duplicate.
(§2) Selection of peptide sequences that interact with the Rev protein, Rev-derived peptides, and the IN itself was made by screening of an N peptide library (NIH AIDS Research and Reference Reagent Program, Division of AIDS, NIAID, NIH: HIV-1 Consensus B Pol (15-mer) peptides—Complete Set from DAIDS, NIAID), using an ELISA-based assay system.
(§3) FIG. 1: 1A—Rev-GFP or GFP alone were incubated in ELISA plates coated with either INr-1 (♦, ⋄, respectively), INr-2 (▪, □, respectively) or INS (▴, Δ, respectively) and binding was determined as described above. 1B—The IN protein was first bound to the ELISA plate and then incubated with Rev-GFP to obtain a Rev-IN complex. The complex was then incubated with either one of the INr peptides or the INS peptide at the designated Rev-GFP:peptide ratio. Wells were then washed and the amount of bound Rev-GFP was determined by mouse anti-GFP antibody and secondary rabbit anti-mouse HRP-conjugated antibody. […]

[2] = biological target: T1, Rev 13-23 (Human immunodeficiency virus type 1 group M subtype B, UniProt P04618); assay: ELISA-based binding assay, biotinylated-BSA-Rev 13-23 conjugate on peptide-coated plates; design: species or system HIV-1
T1 construct: biotinylated-BSA-Rev 13-23 or Rev 53-67 conjugates
Protocol: as §1, §2, §3

[3] = biological target: T2, Rev 53-67 (Human immunodeficiency virus type 1 group M subtype B, UniProt P04618); assay: ELISA-based binding assay, biotinylated-BSA-Rev 53-67 conjugate on peptide-coated plates; design: species or system HIV-1
T2 construct: biotinylated-BSA-Rev 13-23 or Rev 53-67 conjugates
Protocol: as §1, §2, §3

[4] = biological target: T3, IN (Human immunodeficiency virus type 1 group M subtype B, UniProt P12497); assay: IN enzymatic activity assay; type: biochemical, HIV-1; settings: for integrase activity inhibited by Rev-derived peptide, restoration: molar ratio 1:10 (Rev peptide:INr peptide)
T3 construct: The histidine-tagged IN expression vector was a generous gift from Dr. A. Engelman; histidine tag; made in house
Protocol: The IN enzymatic activity assay was performed using a previously described assay system (Craigie et al., 1991, Nucleic Acids Res 19, 2729-2734, Hwang et al., 2000, Nucleic Acids Res 28, 4884-4892). Briefly, the oligonucleotide substrate consisted of one oligo (5′-[…]-3′) labeled with biotin at the 3′ end and the other oligo (5′-[…]-3′) labeled with digoxigenin at the 5′ end. When inhibition was studied, the IN was preincubated with the peptide or protein for 15 min prior to addition of the DNA substrate.
FIG. 2 (A) Rev-GFP (dark green) or GFP (turquoise) were incubated at different molar ratios with IN (390 nM) and the IN enzymatic activity was determined as described above. (B) Rev-GFP was preincubated with the indicated INS peptide at a molar ratio of 5:1 (peptide:Rev-GFP) and the resultant mixture was added to a solution containing IN to give a molar ratio of 1:200 and 1:400 (IN:Rev-GFP). Following an incubation period, IN activity was estimated as described above. (C) Same as (B) but with the INrs peptides.
FIG. 3 A-C IN (390 nM) was incubated with 50 μM of the Rev-derived peptides (1:300 IN:Rev-derived peptide, Rev13-23 or Rev 53-67) and then the INS peptide was added at different molar ratios ranging from 10:1 to 1:10 (Rev peptide:INS peptide) (A) IN (390 nM) was incubated with 50 μM of the Rev-derived peptides (1:300 IN:Rev-derived peptide), (Rev13-23 (B) and Rev 53-67 (C)) and then the INr peptides were added at different molar ratios ranging from 10:1 to 1:10 (Rev peptide:INr peptide).

[5] = biological target: T3, IN; assay: ELISA-based binding assay, IN protein; design: species or system HIV-1
Protocol: Each measurement was performed at least in duplicate.
Selection of peptide sequences that interact with the Rev protein, Rev-derived peptides, and the IN itself was made by screening of an N peptide library (NIH AIDS Research and Reference Reagent Program, Division of AIDS, NIAID, NIH: HIV-1 Consensus B Pol (15-mer) peptides—Complete Set from DAIDS, NIAID), using an ELISA-based assay system. […] This observation further confirmed that the sequence of the NS and INrs peptides within the N protein mediate the interaction with the Rev protein. The NS peptide interacted with both Rev 13-23 and Rev 53-67 peptides while Nr-1 and Nr-2 interacted with the Rev 53-67 and Rev 13-23 peptides respectively (FIG. 1D and Table 1). […] This was inferred from experiments showing that biotinylated-BSA-Rev 13-23 or Rev 53-67 conjugates were able to interact with NS or INrs peptides-coated plates (FIGS. 1C and 1D).

[6] = test system: HeLa cells; assay: Cell-penetration experiments, fluorescein-labeled peptides, confocal microscopy; type: cell-based; settings: fluorescein-labeled peptide 10 μM
Protocol: Fluorescein-labeled peptides at a final concentration of 10 μM in PBS were incubated with HeLa cells for 1 h at 37° C.
The cells were then washed three times with PBS and visualized by a confocal microscope. […] (C) same as (B) but in H9 lymphocytes

[7] = test system: HeLa TZM-b1 cells; assay: Cell viability, MTT assay; type: cell-based; settings: up to about 62 μM
[8] = test system: HIV-1 DNA integration; assay: Copy numbers of HIV-1 DNA integrated into cellular genome, real-time PCR; type: cell-based; settings: H9 cells, 24 hours post infection, single cycle of infection, Δenv/VSV-G HIV-1
Protocol: During the second-round PCR, the first-round PCR product could be specifically amplified by using the tag-specific primer (tag-F 5′-[…]-3′) and the LTR primer (LTR-R 5′-[…]-3′) designed by PrimerExpress (Applied Biosystems) using default settings. The second-round PCR was performed on 1/25th of the first-round PCR product in a mixture containing 300 nM of each primer, 12.5 μl of 2λ SYBR Green master mixture (Applied Biosystems) at a final volume of 25 μl, run on an ABI PRIZM 7700 (Applied Biosystems).
For generation a standard calibration curve, the SVC21 plasmid containing the full-length HIV-1HXB2 viral DNA was used as a template. In the first-round PCR, the LTR-TAG-F and LTR-R primers were used and the second-round PCR was performed using the tag-F and LTR-R primers. The standard linear curve was in the range of 5 ng to 0.25 fg (R=0.99). DNA samples were assayed with quadruplets of each sample. The cell equivalents in the sample DNA were calculated based on amplification of the 18S gene by real-time PCR as described in (Field et al, 2002, Biochem J 368, 855-864).
. (B) H9 T-lymphoid cells were incubated with the indicated peptides (12.5 μM) or AZT (2 μM) and following HIV-1 infection, the integrated viral DNA/cell was assessed by real-time PCR following a single cycle of infection at a MOI of 5 of Δenv/VSV-G HIV-1.

[9] = Survival of HIV-1 infected and uninfected Hela cells; type: cell-based; settings: human, uninfected HeLa cells, read-out: intact viable uninfected Hela cells
Protocol: FIG. 7 Percentage of viable infected and uninfected Hela cells normalized every two days to the number of cells in the non treated non infected cells sample. Cells were infected with WT HIV-1 at MOI of 0.01 and the treated cells were added 12.5 μM of INS.

[10] = test system: Rev-IN complex; settings: peptide added to preformed complex
[11] = test system: HIV-1; settings: H9 and Sup-T1 cells, peptide 12.5 μM
Protocol: Cultured lymphocytes (1×10^5) were centrifuged for 5 min at 2000 rpm and after removal of the supernatant, the cells were resuspended in 0.2 to 0.5 ml of RPMI 1640 medium containing virus at a multiplicity of infection (MOI) of 0.01, 0.1 and 5. Following absorption for 2 h at 37° C., the cells were washed to remove unbound virus and then incubated at the same temperature for an additional 1 to 8 days.
Lymphoid cells were incubated with the indicated peptides for 2 h and following infection with wild-type HIV-1 at a MOI of 0.01 (as described above), the cells were incubated for 8 days, or 48 h at a MOI of 1. The amount of p24 protein was estimated in the cell medium every 2 days exactly as described previously.
The amount of viral P24 (A and B) and virus titer (C and D) were determined every 2 days by ELISA and MAGI assay (Kimpton 1992, J Virol 66, 2232-2239), respectively. The concentration of azidothymidine (AZT) used was 2 μM.

[12] = test system: HIV-1
Protocol: Quantitative titration of HIV-1 was carried out using the MAGI assay, as described by Kimpton and Emerman (J Virol 1992, 66, 2232-2239). […] Two days post-infection (PI), cultured cells were fixed and ƒl-galactosidase was estimated as described above. Blue cells were counted under a light microscope at 200× magnification.
The concentration of azidothymidine (AZT) used was 2 μM.

[13] = test system: HIV-1 infected lymphocyte cells; assay: Lysis of HIV-1 infected cells after one cycle of infection, MTT; settings: 62.5-150 μM, ΔENV/VSV-G HIV-1 MOI 10, MTT 48 h post infection

## WGSNFTSTTVKA [INr-2]
[1]
  interaction with Rev-GFP: specifically interacting
[2]
  interaction with Rev 13-23 peptide: interacted
[3]
  interaction with Rev 53-67 peptide: not with Rev 53-67
[4]; IN 390 nM, Rev peptide 50 μM
  abrogation of inhibitory effect of Rev 13-23 peptide on IN activity: abrogated the inhibitory effect
[4]
  integrase activity inhibited by Rev-derived peptide, restoration: fully restored

## WTAVQMAVFIHNFKRK [INS]
[5]
  interaction with the IN protein itself: interact
[1]
  interaction with Rev-GFP: specifically interacting
[2]
  interaction with Rev 13-23 peptide: interacted
[3]
  interaction with Rev 53-67 peptide: interacted
[4]; in the absence of the inhibitory Rev peptide
  enzymatic activity of HIV-1 IN: significantly stimulated
[4]; molar ratio Rev:INS peptide 1:5
  integrase activity inhibited by Rev-derived peptides, restoration: fully restored
[4]; molar ratio Rev:INS peptide 1:10
  integrase activity in presence of Rev-derived peptides: stimulate the IN activity
[4]; peptide:Rev-GFP 5:1, IN:Rev-GFP 1:200 and 1:400
  abrogation of Rev-GFP inhibition of IN activity: abrogated the inhibitory activities of Rev-GFP
[6]
  cell penetration: cell-permeable
[7]
  cell toxicity: non-toxic
[8]
  stimulation of integration per cell: 2- to 5 fold
[9]
  viability at 12.5 µM: ~100%
[10]
  release of bound Rev-GFP from the complex formed between IN and Rev-GFP: induces the release of the bound Rev-GFP
[11]
  appearance of viral p24 antigen: Stimulation
[12]
  appearance of infectious viral particles: stimulation
[13]
  cell death after one cycle of infection: induce killing of only infected lymphocyte cells

## WTHLEGKIILVAVHVA [INr-1]
[1]
  interaction with Rev-GFP: specifically interacting
[2]
  interaction with Rev 13-23 peptide: not with the Rev 13-23 peptide
[3]
  interaction with Rev 53-67 peptide: interacted
[4]; IN 390 nM, Rev peptide 50 μM
  abrogation of inhibitory effect of Rev 53-67 peptide on IN activity: abrogated the inhibitory effect
[4]
  integrase activity inhibited by Rev-derived peptide, restoration: fully restored
